According to US6348486B1, “Methods for modulating bladder function” (American Home Products Corporation, priority 2000, dated 2002):

Tests used:
[1] = system: isolated carbachol contracted rat bladder strips; assay: Relaxation of isolated carbachol contracted rat bladder strips
Description: (§1) Using quantitative rtPCR, the expression of KCNQ1, KCNQ3 and KCNQ5 potassium channels was identified in the rat urinary bladder. […] To further probe M-current activity in the bladder, retigabine (10 μM, M-current agonist) was tested in isolated bladder smooth muscle cells using standard patch-clamp techniques. […] This hyperpolarization was reversed by the addition of linopirdine (50 μM an M-current antagonist) to the tissue bath. […] This relaxation was reversed by the M-current blockers linopirdine and XE-991.

[2] = system: isolated bladder smooth muscle cells; assay: Patch-clamp of isolated bladder smooth muscle cells (M-current activity); assay type: cell-based, rat
Description: as §1

[3] = target: T1, KCNQ2/3 potassium channels (Homo sapiens, UniProt O43525+O43526); conditions: oocytes; cited from earlier work
T1 construct: host or cells: oocytes (heterologous expression, as described in the cited article)
T1 sequence (O43526 whole entry): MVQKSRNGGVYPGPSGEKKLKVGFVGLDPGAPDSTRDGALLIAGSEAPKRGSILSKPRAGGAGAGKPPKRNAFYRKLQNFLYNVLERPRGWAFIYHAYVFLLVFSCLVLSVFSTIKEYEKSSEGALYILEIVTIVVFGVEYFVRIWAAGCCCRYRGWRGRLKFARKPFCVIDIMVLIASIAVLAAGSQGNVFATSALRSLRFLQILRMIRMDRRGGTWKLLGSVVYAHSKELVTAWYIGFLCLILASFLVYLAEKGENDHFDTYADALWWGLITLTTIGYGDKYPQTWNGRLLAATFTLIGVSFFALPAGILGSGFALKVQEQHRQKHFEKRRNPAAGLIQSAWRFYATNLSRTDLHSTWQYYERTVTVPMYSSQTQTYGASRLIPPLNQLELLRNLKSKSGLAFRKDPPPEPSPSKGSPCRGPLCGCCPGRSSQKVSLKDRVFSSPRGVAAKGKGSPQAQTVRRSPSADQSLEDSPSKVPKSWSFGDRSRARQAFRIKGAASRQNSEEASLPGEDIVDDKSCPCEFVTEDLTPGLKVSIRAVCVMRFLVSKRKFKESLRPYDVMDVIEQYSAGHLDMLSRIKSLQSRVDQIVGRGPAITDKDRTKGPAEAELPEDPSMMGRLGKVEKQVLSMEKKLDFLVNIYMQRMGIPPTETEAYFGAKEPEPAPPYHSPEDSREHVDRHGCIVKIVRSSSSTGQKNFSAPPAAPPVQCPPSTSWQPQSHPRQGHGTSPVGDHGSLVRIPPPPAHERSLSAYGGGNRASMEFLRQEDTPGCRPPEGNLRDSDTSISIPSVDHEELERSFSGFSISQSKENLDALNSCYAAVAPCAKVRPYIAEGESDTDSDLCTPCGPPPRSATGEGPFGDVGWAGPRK
T1 sequence (O43525 whole entry): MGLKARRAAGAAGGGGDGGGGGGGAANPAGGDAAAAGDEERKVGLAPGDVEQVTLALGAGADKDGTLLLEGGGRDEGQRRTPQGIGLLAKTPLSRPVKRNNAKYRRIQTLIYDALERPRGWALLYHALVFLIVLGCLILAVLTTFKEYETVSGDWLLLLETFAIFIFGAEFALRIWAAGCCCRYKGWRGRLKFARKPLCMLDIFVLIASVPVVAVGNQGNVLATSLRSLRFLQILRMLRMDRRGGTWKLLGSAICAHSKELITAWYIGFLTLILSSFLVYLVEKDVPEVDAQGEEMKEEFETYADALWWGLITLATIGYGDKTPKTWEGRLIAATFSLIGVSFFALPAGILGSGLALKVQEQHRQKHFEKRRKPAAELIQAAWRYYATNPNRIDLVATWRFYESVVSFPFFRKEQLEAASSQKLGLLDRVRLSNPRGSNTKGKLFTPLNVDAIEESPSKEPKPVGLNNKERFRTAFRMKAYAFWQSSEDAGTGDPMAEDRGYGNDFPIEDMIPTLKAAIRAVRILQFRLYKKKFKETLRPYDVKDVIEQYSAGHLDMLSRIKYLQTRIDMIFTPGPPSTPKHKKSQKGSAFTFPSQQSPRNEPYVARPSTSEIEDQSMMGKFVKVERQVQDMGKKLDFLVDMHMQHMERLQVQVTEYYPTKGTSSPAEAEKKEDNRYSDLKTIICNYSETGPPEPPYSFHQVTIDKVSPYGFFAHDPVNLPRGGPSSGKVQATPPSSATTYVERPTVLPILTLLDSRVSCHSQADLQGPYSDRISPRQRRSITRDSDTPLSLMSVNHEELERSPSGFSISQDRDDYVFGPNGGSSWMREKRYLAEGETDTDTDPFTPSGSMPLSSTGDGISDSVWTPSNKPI

Structure (SMILES)	reversal of retigabine-induced relaxation by M-current blockers [1]	reversal of retigabine-induced hyperpolarization ([2]; linopirdine 50 μM added to the tissue bath)	membrane hyperpolarization ([2]; retigabine 10 μM, n=5) [mV]	outward current insensitive to iberiotoxin ([2]; retigabine 10 μM, standard patch-clamp)	IC50 ([1]; Rattus norvegicus, read-out: IC50 for relaxation of carbachol contracted bladder strips) [µM]	channel deactivation [3]	rate of channel activation [3]	voltage dependence of channel activation [3]
O=C1c2ccccc2C(Cc2ccncc2)(Cc2ccncc2)c2ccccc21 [XE-991]	reversed	–	–	–	–	–	–	–
O=C1N(c2ccccc2)c2ccccc2C1(Cc1ccncc1)Cc1ccncc1 [linopirdine]	reversed	reversed	–	–	–	–	–	–
CCOC(=O)Nc1ccc(NCc2ccc(F)cc2)cc1N [retigabine, N-[2-amino-4-(4-fluorobenzylamino)-phenyl]carbamic acid ethyl ester]	–	–	17.8±3.0	significantly increased	3.5 ± 0.9	slows channel deactivation	increases the rate of channel activation	shifts the voltage dependence of channel activation to more hyperpolarized membrane potentials
